Source: US20230203044A1, “PYRAZOLO[1,5-D][1,2,4]TRIAZINE-5(4H)-ACETAMIDES AS INHIBITORS OF THE NLRP3 INFLAMMASOME” (JANSSEN PHARMACEUTICA NV, priority 2020, published 2023)

Experiments:
TNF = assay: PBMC assay: TNF cytokine levels in LPS-stimulated human PBMCs (MSD); format: cell-based; conditions: 100 ng/ml LPS for 6 hrs, TNF in supernatant via MSD
Procedure: (§1) Peripheral venous blood was collected from healthy individuals and human peripheral blood mononuclear cells (PBMCs) were isolated from blood by Ficoll-Histopaque (Sigma-Aldrich, A0561) density gradient centrifugation. After isolation, PBMCs were stored in liquid nitrogen for later use. Upon thawing, PBMC cell viability was determined in growth medium (RPMI media supplemented with 10% fetal bovine serum, 1% Pen-Strep and 1% L-glutamine). Compounds were spotted in a 1:3 serial dilution in DMSO and diluted to the final concentration in 30 μl medium in 96 well plates (Falcon, 353072). PBMCs were added at a density of 7.5×10^4 cells per well and incubated for 30 min in a 5% CO2 incubator at 37° C. LPS stimulation was performed by addition of 100 ng/ml LPS (final concentration, Invivogen, tlrl-smlps) for 6 hrs followed by collection of cellular supernatant and the analysis of IL-1β (μM) and TNF cytokines levels (μM) via MSD technology according to manufacturers' guidelines (MSD, K151A0H).
The IC50 values (for IL-1β) and EC50 values (TNF) were obtained on compounds of the invention/examples, and are depicted in the following table: […]

NLRP3 inflammasome = assay: PBMC assay: IL-1β in LPS-stimulated human PBMCs (MSD); format: cell-based; conditions: human PBMCs, 100 ng/ml LPS for 6 hrs, IL-1β in supernatant via MSD, read-out: IL1β IC50
Procedure: The activity of a compound according to the present invention can be assessed by in vitro methods.
as §1, with “Compounds were spotted in a 1:3 serial dilution in DMSO and diluted to the final concentration in 30 μl medium in 96 well plates (Falcon, 353072).” left out

SMILES | EC50 (TNF) [µM] | IC50 (NLRP3 inflammasome) [µM]
CCc1cc2c(=O)n(CC(=O)N[C@H]3C[C@@](C)(O)C3)nc(C(C)C)n2n1 [Final Cpd 140] | > 10 | 0.21
CCc1cc2c(=O)n(CC(=O)Nc3ccnnc3)nc(C(C)C)n2n1 [Final Cpd 141] | > 10 | 0.42
CC(C)c1cc2c(=O)n(CC(=O)N[C@H]3C[C@@](C)(O)C3)nc(C(C)C)n2n1 [Final Cpd 142] | > 10 | 0.14
CC(C)c1cc2c(=O)n(CC(=O)Nc3ccc4nncn4c3)nc(C(C)C)n2n1 [Final Cpd 143] | > 10 | 0.1
CCc1cc2c(=O)n(CC(=O)Nc3ccc4nncn4c3)nc(C(C)C)n2n1 [Final Cpd 146] | > 10 | 0.21
CC(C)c1cc2c(=O)n(CC(=O)Nc3ccc4nncn4c3)nc(N(C)C)n2n1 [Final Cpd 148] | > 10 | 0.32
CC(C)c1cc2c(=O)n(CC(=O)Nc3ccnnc3)nc(N(C)C)n2n1 [Final Cpd 149] | > 10 | 0.78
CC(C)c1cc2c(=O)n(CC(=O)N[C@H]3C[C@@](C)(O)C3)nc(N(C)C)n2n1 [Final Cpd 150] | > 10 | 0.36
CC(C)c1nn2c(N(C)C)nn(CC(=O)Nc3ccncn3)c(=O)c2c1Br [Final Cpd 151] | > 10 | > 10
CCc1cc2c(=O)n(CC(=O)Nc3ccnnc3)nc(N(C)C)n2n1 [Final Cpd 152] | > 10 | 0.86
CC(C)c1nn(CC(=O)N[C@H]2C[C@@](C)(O)C2)c(=O)c2cc(C3CC3(F)F)nn12 (some centres unmarked) [Final Cpd 153] | > 10 | 0.09
CC(C)c1cc2c(=O)n(CC(=O)Nc3ccc4nncn4c3)nc(C(C)O)n2n1 (centres unmarked) [Final Cpd 155] | > 10 | 1.14
CC(C)c1nn(CC(=O)Nc2ccc3nncn3c2)c(=O)c2cc(C(O)C(F)(F)F)nn12 (centres unmarked) [Final Cpd 157] | > 10 | > 10
CC(C)c1nn(CC(=O)N[C@H]2C[C@@](C)(O)C2)c(=O)c2cc(C(O)C(F)(F)F)nn12 (some centres unmarked) [Final Cpd 158] | > 10 | > 10
CC(C)c1nn(CC(=O)Nc2ccc3nncn3c2)c(=O)c2cc(CC(F)(F)F)nn12 [Final Cpd 159] | > 10 | 2.24
CC(C)c1nn(CC(=O)N[C@H]2C[C@@](C)(O)C2)c(=O)c2cc(C(C)(F)F)nn12 [Final Cpd 161] | > 10 | 0.11
CC(C)c1nn(CC(=O)Nc2ccc3nccn3n2)c(=O)c2cc(C3CC3)nn12 [Final Cpd 165] | > 10 | 0.1
CC(C)c1nn(CC(=O)Nc2ccc3nncn3n2)c(=O)c2cc(C3CC3)nn12 [Final Cpd 166, N-([1,2,4]triazolo[4,3-b]pyridazin-6-yl)-2-(2-cyclopropyl-7-isopropyl-4-oxopyrazolo[1,5-d][1,2,4]triazin-5(4H)-yl)acetamide] | > 10 | 0.044

The remaining lines, values ahead:

EC50 (TNF) [µM] | IC50 (NLRP3 inflammasome) [µM] | SMILES
> 10 | 6.56 | COc1nn(CC(=O)N[C@H]2C[C@@](C)(O)C2)c(=O)c2cc(C3CC3)nn12 [Final Cpd 139]
> 10 | 0.32 | CC(C)c1cc2c(=O)n(CC(=O)Nc3ccnnc3)nc(C(C)C)n2n1 [Final Cpd 144]
> 10 | 0.51 | CCCc1cc2c(=O)n(CC(=O)Nc3ccnnc3)nc(C(C)C)n2n1 [Final Cpd 145]
> 10 | 0.4 | CC(C)c1cc2c(=O)n(CC(=O)Nc3ccncn3)nc(N(C)C)n2n1 [Final Cpd 147]
> 10 | 3 | CC(C)c1cc2c(=O)n(CC(=O)N[C@H]3C[C@@](C)(O)C3)nc(C(C)O)n2n1 (some centres unmarked) [Final Cpd 154]
> 10 | 1.96 | CC(C)c1cc2c(=O)n(CC(=O)Nc3ccncn3)nc(C(C)O)n2n1 (centres unmarked) [Final Cpd 156]
> 10 | > 10 | CC(C)c1nn(CC(=O)N[C@H]2C[C@@](C)(O)C2)c(=O)c2cc(CC(F)(F)F)nn12 [Final Cpd 160]
> 10 | 0.62 | O=C(Cn1nc(C2CC2)n2nc(C3CC3)cc2c1=O)Nc1ccc2nncn2n1 [Final Cpd 163, N-([1,2,4]triazolo[4,3-b]pyridazin-6-yl)-2-(2,7-dicyclopropyl-4-oxopyrazolo[1,5-d][1,2,4]triazin-5(4H)-yl)acetamide]
> 10 | 0.54 | CC(C)c1nn(CC(=O)Nc2cc(F)[nH]c(=O)c2)c(=O)c2cc(C3CC3)nn12 [Final Cpd 164]
> 10 | 0.38 | CC(C)c1nn(CC(=O)Nc2ccc3nc(C(F)(F)F)cn3c2)c(=O)c2cc(C3CC3)nn12 [Final Cpd 167]
